This note sets out measurements from patent US20090215742A1, “AMIDE […]” (PFIZER, INC., priority 2005, published 2009).

The target in this test is T1, HSP-90 (Homo sapiens, UniProt P07900).
T1 construct: fused on or other part: 6-His tag at the C-terminus
Kind of test: HSP-90 SPA (scintillation proximity assay) competition binding assay, displacement of tritiated propyl-Geldanamycin. The following applies: for inhibition at 1 µM: read-out: % inhibition @ 1 μM; for inhibition at 10 µM: read-out: % inhibition @ 10 μM. Here is the method:
Compounds of the present invention were evaluated for potency against HSP-90 using a SPA (scintillation proximity assay) competition binding assay. Briefly, either full length or N-terminal HSP-90 that contains a 6-His tag on its C-terminus binds to copper on Yttrium-silicate scintillant beads via the His-tag. Tritiated propyl-Geldanamycin (pGA), whose structure is shown below, is an analog of a natural inhibitor of HSP-90 called Geldanamycin.
Tritiated pGA, which contains a tritiated propyl-amine group added at the #17 position, binds HSP-90 and brings the isotope into proximity with the beads. […] The beta signal emitted from the isotope excites the scintillant, which creates a measurable signal. As competitive compounds are added to the assay mixture, they compete with bound tritiated pGA at the ATP-binding site on the N-terminal of HSP-90. When a compound displaces the labeled pGA, the signal is reduced (the beta-particles are no longer in proximity with the bead). This reduction in signal is used to quantify the extent to which the inhibitor/compound is competitive with pGA.
Typical reaction solutions contained 30 nM HSP-90 and 200 nM ^3H-pGA in binding buffer (100 mM Hepes, pH 7.5 and 150 mM KCl). […] Inhibitors were added to the HSP-90/^3H-pGA solutions at eleven different concentrations for Ki determinations. […] To determine percent inhibition, the compound was tested at 1 and 10 μM. The final DMSO in the samples was 4%. Copper-Ysi beads (Amersham, #RPNQ0096) that have been diluted in binding buffer were added to each well to give a final concentration of 100 μg/well. The plates were sealed, covered with a foil-covered lid and shaken for 30 minutes at room temperature. The beads were allowed to settle for 30 minutes after which the plates were counted using a Packard TopCount NXT instrument. This procedure has also been adapted for medium throughput using a Beckman Biomek FX. Samples were run in duplicate and on two separate days to assure an accurate value of Ki.
For Ki determinations, the corrected cpm's (actual cpm's minus background) were plotted vs. inhibitor concentration using GraphPad Prism software. […] The IC50 was then used to calculate the Ki by using the Cheng-Prusoff equation: […]
This is normally true when the observed IC50 is […] the HSP-90 concentration. For a tight binding inhibitor, the following equation can be applied: […]
EL and ELo are the radioligand-HSP-90 complexes in the presence and absence of inhibitor, respectively. EL/ELo represents the fractional signal in the presence of inhibitor. Io, Eo, and Lo are the inhibitor, HSP-90, and radioligand concentrations, respectively.

On to `O=C(c1ccc(O)cc1O)N1CCN(c2cnccn2)CC(CO)C1` (centres unmarked) [Example 124, 4-{[6-(hydroxymethyl)-4-pyrazin-2-yl-1,4-diazepan-1-yl]carbonyl}benzene-1,3-diol], for which the inhibition at 1 µM is -4.8% and the inhibition at 10 µM stood at 18.1%. On to `O=C(c1cc(Cl)cc(Cl)c1O)N1Cc2ccccc2C1` [Example 208, 2,4-dichloro-6-(1,3-dihydro-2H-isoindol-2-ylcarbonyl)phenol], for which the inhibition at 10 µM came out at 0%. As for `CN(C(=O)c1ccc(O)cc1O)[C@@H]1CCCC[C@H]1O` [Example 40, 2,4-dihydroxy-N-(2-hydroxycyclohexyl)-N-methylbenzamide], the inhibition at 1 µM was found to be 13.2% and the inhibition at 10 µM was 49.1%. For `O=C(c1ccc(O)cc1O)N1CCOC(COc2ccccc2)C1` (centres unmarked) [Example 112, 4-{[2-(phenoxymethyl)morpholin-4-yl]carbonyl}benzene-1,3-diol], the inhibition at 1 µM amounted to 48.1% and the inhibition at 10 µM is 80.5%. As to `O=C(c1ccc(O)cc1O)N1CCOC(COc2ccc(F)cc2Cl)C1` (centres unmarked) [Example 115, 4-({2-[(2-chloro-4-fluorophenoxy)methyl]morpholin-4-yl}carbonyl)benzene-1,3-diol], the inhibition at 1 µM amounted to 60.3% and the inhibition at 10 µM turned out to be 83.7%.

Consider `O=C(c1ccc(O)cc1O)N1CCC(CCc2cccc(Cl)c2)CC1` [Example 48, 4-({4-[2-(3-chlorophenyl)ethyl]piperidin-1-yl}carbonyl)benzene-1,3-diol], for which the inhibition at 1 µM worked out at 63.3% and the inhibition at 10 µM was found to be 87.5%. The like results for `O=C(c1cc2ccccc2cc1O)N1Cc2ccccc2C1` [Example 24, 3-(1,3-dihydro-2H-isoindol-2-ylcarbonyl)-2-naphthol] were, in that order, 5.4% and 34.9%. Consider `CCOC(=O)C1CCCN(C(=O)c2ccc(O)cc2O)C1` (centres unmarked) [Example 52, ethyl 1-(2,4-dihydroxybenzoyl)piperidine-3-carboxylate], for which the inhibition at 1 µM turned out to be 39.1% and the inhibition at 10 µM worked out at 80.2%. For the compound `O=C(c1ccc(O)cc1O)N1CCOCC(O)(COCC2CC2)C1` (centres unmarked) [Example 38], the inhibition at 1 µM came out at 27.4% and the inhibition at 10 µM came out at 68.4%. The corresponding values for `COc1ccccc1OC1CCN(C(=O)c2ccc(O)cc2O)CC1` [Example 72, 4-{[4-(2-methoxyphenoxy)piperidin-1-yl]carbonyl}benzene-1,3-diol] are 13.2% and 62.4%. The corresponding values for `CN(Cc1ccc(F)cc1)C(=O)c1ccc(O)cc1O` [Example 105, N-(4-fluorobenzyl)-2,4-dihydroxy-N-methylbenzamide] are 30.2% and 69.3%. In the case of `O=C(c1ccc(O)cc1O)N1CCC(Cc2ccc(Cl)cc2)CC1` [Example 43, 4-{[4-(4-chlorobenzyl)piperidin-1-yl]carbonyl}benzene-1,3-diol], the inhibition at 1 µM stood at 35.9% and the inhibition at 10 µM came out at 73.6%.

For the compound `Cc1ccc(O)c(C(=O)N2Cc3ccccc3C2)c1` [Example 30, 2-(1,3-dihydro-2H-isoindol-2-ylcarbonyl)-4-methylphenyl], the inhibition at 1 µM was 5.8% and the inhibition at 10 µM was found to be 61.2%. The like results for `O=C(c1ccc(O)cc1O)N1CCOCC(COCC2CC2)C1` (centres unmarked) [Example 37] were, in that order, 24.6% and 64.1%. Take `O=C(c1ccc(O)cc1O)N1CCC(c2ccc(F)cc2)C1` (centres unmarked) [Example 95, 4-{[3-(4-fluorophenyl)pyrrolidin-1-yl]carbonyl}benzene-1,3-diol]: the inhibition at 1 µM stood at 22.7% and the inhibition at 10 µM amounted to 70.3%. Take `O=C(c1ccc(O)cc1O)N1CCOCC2(CC(c3cc(F)cc(F)c3)=NO2)C1` (centres unmarked) [Example 128, 4-{[3-(3,5-difluorophenyl)-1,7-dioxa-2,10-diazaspiro[4.6]undec-2-en-10-yl]carbonyl}benzene-1,3-diol]: the inhibition at 1 µM worked out at 31.2% and the inhibition at 10 µM turned out to be 73.1%.

`CN(Cc1ccccc1Cl)C(=O)c1ccc(O)cc1O` [Example 113, N-(2-chlorobenzyl)-2,4-dihydroxy-N-methylbenzamide]: the inhibition at 1 µM was 53% and the inhibition at 10 µM was 81.9%. The corresponding values for `O=C(c1ccc(O)cc1O)N1CCOC(COc2cccc(Cl)c2)C1` (centres unmarked) [Example 110, 4-({2-[(3-chlorophenoxy)methyl]morpholin-4-yl}carbonyl)benzene-1,3-diol] are 55.3% and 82.8%. The corresponding values for `O=C(c1ccc(O)cc1O)N1CCCCC1c1nccs1` (centres unmarked) [Example 62, 4-{[2-(1,3-thiazol-2-yl)piperidin-1-yl]carbonyl}benzene 1,3-diol] are 12% and 64.4%. Consider `COc1cc(C2=NOC3(COCCN(C(=O)c4ccc(O)cc4O)C3)C2)ccc1F` (centres unmarked) [Example 129, 4-{[3-(4-fluoro-3-methoxyphenyl)-1,7-dioxa-2,10-diazaspiro[4.6]undec-2-en-10-yl]carbonyl}benzene-1,3-diol], for which the inhibition at 1 µM is 60.5% and the inhibition at 10 µM was determined as 88.5%. The like results for `Cc1ccccc1C1(O)CCN(C(=O)c2ccc(O)cc2O)C1` (centres unmarked) [Example 100, 4-{[3-hydroxy-3-(2-methylphenyl)pyrrolidin-1-yl]carbonyl}benzene-1,3-diol] were, in that order, 35.9% and 79.1%. On to `O=C(c1ccc(O)cc1O)N1CCCC(CCOc2ccccc2)C1` (centres unmarked) [Example 55, 4-{[3-(2-phenoxyethyl)piperidin-1-yl]carbonyl}benzene-1,3-diol], for which the inhibition at 1 µM is 77.4% and the inhibition at 10 µM was determined as 87%. The like results for `O=C(c1ccc(O)cc1O)N1CCSCC1` [Example 133, 4-(thiomorpholin-4-ylcarbonyl)benzene-1,3-diol] were, in that order, 42.6% and 80%. As to `O=C(c1ccc(O)cc1O)N1CCOCC(COCc2c(Cl)cccc2Cl)C1` (centres unmarked) [Example 122, 4-[(6-{[(2,6-dichlorobenzyl)oxy]methyl}-1,4-oxazepan-4-yl)carbonyl]benzene-1,3-diol], the inhibition at 1 µM was 48.2% and the inhibition at 10 µM worked out at 79%. For the compound `O=C(c1ccc(O)cc1O)N1CCC(O)(c2ccc(Cl)cc2)CC1` [Example 76, 4-{[4-(4-chlorophenyl)-4-hydroxypiperidin-1-yl]carbonyl}benzene-1,3-diol], the inhibition at 1 µM is 48.4% and the inhibition at 10 µM was determined as 81%.

Consider `CC(C)CN(C)C(=O)c1ccc(O)cc1O` [Example 39, 2,4-dihydroxy-N-isobutyl-N-methylbenzamide], for which the inhibition at 1 µM turned out to be 11.3% and the inhibition at 10 µM was 52.3%. On to `O=C(c1ccc(O)cc1O)N1CCOCC(Cc2ccc(Cl)c(Cl)c2)C1` (centres unmarked) [Example 99, 4-{[6-(3,4-dichlorobenzyl)-1,4-oxazepan-4-yl]carbonyl}benzene-1,3-diol], for which the inhibition at 1 µM worked out at 52.2% and the inhibition at 10 µM was found to be 80%. The corresponding values for `O=C(c1ccc(O)cc1O)N1CCOCC2(CC(c3ccc(F)cc3)=NO2)C1` (centres unmarked) [Example 120, 4-{[3-(4-fluorophenyl)-1,7-dioxa-2,10-diazaspiro[4.6]undec-2-en-10-yl]carbonyl}benzene-1,3-diol] are 76.2% and 89.4%. The corresponding values for `O=C(c1ccc(O)cc1O)N1CCC2(CC1)OCc1ccccc12` [Example 80, 4-(1′H,3H-spiro[2-benzofuran-1,4′-piperidin]-1′-ylcarbonyl)benzene-1,3-diol] are 42% and 81.3%. `CN(Cc1nnc(-c2ccc(F)cc2)o1)C(=O)c1ccc(O)cc1O` [Example 119, N-{[5-(4-fluorophenyl)-1,3,4-oxadiazol-2-yl]methyl}-2,4-dihydroxy-N-benzamide]: the inhibition at 1 µM worked out at 50.9% and the inhibition at 10 µM turned out to be 82.8%.

Consider `O=C(c1ccc(O)cc1O)N1CCC(c2ccnc(C(F)(F)F)n2)CC1` [Example 83, 4-({4-[2-(trifluoromethyl)pyrimidin-4-yl]piperidin-1-yl}carbonyl)benzene-1,3-diol], for which the inhibition at 1 µM came to 10.1% and the inhibition at 10 µM was 35%. `O=C(c1cccc2cccnc12)N1Cc2ccccc2C1` [Example 187, 8-(1,3-dihydro-2H-isoindol-2-ylcarbonyl) quinoline]: the inhibition at 1 µM came to 0%.
